ChEMBL document CHEMBL1152554, “Synthesis and pharmacological evaluation of 6-naltrexamine analogs for alcohol cessation” (Bioorg Med Chem, 2009)
Activity calls are given as the source filed them. No cut-off for these calls is given here.

Key:
[1] = Ratio of drug level in brain to plasma in Wistar rat at 400 ug/kg, po after […]; type: ADME, organism-based; conditions: 0.4 mg/kg, read-out: BPR
in vitro = conditions: mouse, liver microsomes
Nociceptin receptor [2] = biological target: T1, Nociceptin receptor (Homo sapiens, UniProt P41146); test: biochemical
T1 sequence (P41146 whole entry): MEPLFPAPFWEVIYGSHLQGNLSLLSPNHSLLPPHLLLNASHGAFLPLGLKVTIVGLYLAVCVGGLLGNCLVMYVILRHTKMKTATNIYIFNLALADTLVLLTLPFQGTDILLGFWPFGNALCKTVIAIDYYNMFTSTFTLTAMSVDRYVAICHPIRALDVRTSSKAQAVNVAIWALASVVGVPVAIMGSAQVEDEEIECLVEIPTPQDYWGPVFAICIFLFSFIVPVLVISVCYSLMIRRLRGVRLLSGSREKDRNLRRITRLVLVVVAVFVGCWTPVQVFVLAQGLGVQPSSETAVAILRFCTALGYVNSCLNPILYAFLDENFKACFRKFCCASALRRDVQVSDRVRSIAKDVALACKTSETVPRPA

[3] = mouse, microsomes
Nociceptin receptor [4] = biological target: T1, Nociceptin receptor; test: biochemical; remark: listed apart in the source
Liver microsomes = conditions: human
Nociceptin receptor [5] = biological target: T1, Nociceptin receptor; test: biochemical; remark: listed apart in the source
Rattus norvegicus = test: Inhibition of saccharin intake in sc dosed Wistar rat by saccharin-self administration test; type: functional, organism-based
Nociceptin receptor [6] = biological target: T1, Nociceptin receptor; test: Activity at NOP expressed in HEK293 cells assessed as stimulation of [35S]GTPgammaS binding relative to basal level; type: functional, cell-based

Structure (SMILES) | Stability [3] | EC50 (Nociceptin receptor [4]) | Stability (Liver microsomes) | further results
O=C(O)C(=O)O.O=[14C](N[C@@H]1CC[C@@]2(O)[C@H]3Cc4ccc(O)c5c4[C@@]2(CCN3CC2CC2)[C@H]1O5)c1ccc(Br)cc1 | – | – | – | Kp at […] [1]: 2.3
C=C1CC[C@@]2(O)[C@H]3Cc4ccc(O)c5c4[C@@]2(CCN3CC2CC2)[C@H]1O5 | – | – | – | half-life (in vitro): 20 min
O=C(N[C@@H]1CC[C@@]2(O)[C@H]3Cc4ccc(O)c5c4[C@@]2(CCN3CC2CC2)[C@H]1O5)c1ccc(Cl)c(Cl)c1.O=C(O)C(=O)O | Stable | > 10 µM | – | EC50 (Nociceptin receptor [2]): 0.0001 µM
Cc1ccc(C(=O)N[C@@H]2CC[C@@]3(O)[C@H]4Cc5ccc(O)c6c5[C@@]3(CCN4CC3CC3)[C@H]2O6)cc1.O=C(O)C(=O)O | Stable | – | Stable | –
O=C(N[C@@H]1CC[C@@]2(O)[C@H]3Cc4ccc(O)c5c4[C@@]2(CCN3CC2CC2)[C@H]1O5)c1ccc(Br)cc1.O=C(O)C(=O)O | – | > 10 µM | Stable | Ki (Nociceptin receptor [5]): > 10 µM; inhibition (Rattus norvegicus): Active
O=C(N[C@@H]1CC[C@@]2(O)[C@H]3Cc4ccc(O)c5c4[C@@]2(CCN3CC2CC2)[C@H]1O5)c1ccc(C(F)(F)F)cc1.O=C(O)C(=O)O | Stable | – | Stable | –
CC(C)(C)c1ccc(C(=O)N[C@@H]2CC[C@@]3(O)[C@H]4Cc5ccc(O)c6c5[C@@]3(CCN4CC3CC3)[C@H]2O6)cc1.O=C(O)C(=O)O | Stable | – | – | –
O=C(N[C@@H]1CC[C@@]2(O)[C@H]3Cc4ccc(O)c5c4[C@@]2(CCN3CC2CC2)[C@H]1O5)c1ccc(Cl)cc1 | – | > 10 µM | – | –
Oc1ccc2c3c1O[C@H]1c4[nH]c5ccccc5c4C[C@@]4(O)[C@@H](C2)N(CC2CC2)CC[C@]314 | – | – | – | Emax (Nociceptin receptor [6]): 109%
